According to patent US12077503B2, “Substituted cyclic amides and their use as herbicides” (FMC CORPORATION, priority 2015, dated 2024):

Assays:
Format in all cases: in vivo
[1] = test system: Kochia (Kochia scoparia); assay: Test A preemergence
In short: (§1)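 Compounds were formulated in a non-phytotoxic solvent mixture with surfactant and applied as a preemergence directed soil spray after seeding, or sprayed postemergence over plants 2 to 10 cm tall at the one- to two-leaf stage. Evaluation after about 10 d compared treated with untreated controls, using a scale from 0 (no effect) to 100 (complete control).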

[2] = test system: barnyardgrass (Echinochloa crus-galli); assay: Test A preemergence
In short: as §1

[3] = test system: giant foxtail (Setaria faberii); assay: Test A preemergence
In short: as §1

[4] = test system: pigweed (Amaranthus retroflexus); assay: Test A preemergence
[5] = test system: ragweed (common ragweed, Ambrosia elatior); assay: Test A preemergence
In short: as §1

[6] = test system: ryegrass, Italian (Italian ryegrass, Lolium multiflorum); assay: Test A preemergence
In short: as §1

[7] = test system: Galium (catchweed bedstraw, Galium aparine); assay: Test A postemergence
In short: as §1

[8] = test system: Kochia (Kochia scoparia); assay: Test A postemergence
In short: as §1

[9] = test system: barnyardgrass (Echinochloa crus-galli); assay: Test A postemergence
In short: as §1

[10] = test system: blackgrass (Alopecurus myosuroides); assay: Test A postemergence
In short: as §1

[11] = test system: corn (Zea mays); assay: Test A postemergence
In short: as §1

[12] = test system: giant foxtail (Setaria faberii); assay: Test A postemergence
In short: as §1

[13] = test system: pigweed (Amaranthus retroflexus); assay: Test A postemergence
In short: as §1

[14] = test system: ragweed (common ragweed, Ambrosia elatior); assay: Test A postemergence
In short: as §1

[15] = test system: ryegrass, Italian (Italian ryegrass, Lolium multiflorum); assay: Test A postemergence
In short: as §1

[16] = test system: wheat (Triticum aestivum); assay: Test A postemergence
In short: as §1

[17] = test system: barnyardgrass (Echinochloa crus-galli); assay: Test B flooded paddy test; conditions: Flood, 500 g ai/ha; 0 to 100 scale where 0 is no effect and 100 is complete control; 13 to 15 d
In short: (§2)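 Greenhouse paddy pots with 2-leaf stage plants received compound by direct addition to floodwater 3 cm deep, kept at that level. Scored visually at 13–15 d versus controls (0 no effect; 100 complete control).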

[18] = test system: ducksalad (Heteranthera limosa); assay: Test B flooded paddy test; conditions: Flood, 500 g ai/ha; 0 to 100 scale where 0 is no effect and 100 is complete control; 13 to 15 d
In short: as §2

[19] = test system: rice (Oryra sativa); assay: Test B flooded paddy test; conditions: Flood, 500 g ai/ha; 0 to 100 scale where 0 is no effect and 100 is complete control; 13 to 15 d
In short: as §2

[20] = test system: sedge, umbrella (small-flower umbrella sedge, Cyperus difformis); assay: Test B flooded paddy test; conditions: Flood, 500 g ai/ha; 0 to 100 scale where 0 is no effect and 100 is complete control; 13 to 15 d
In short: as §2

[21] = 125 g ai/ha, Preemergence, visual injury after approximately 10 d, 0 to 100 scale where 0 is no effect and 100 is complete control
[22] = Preemergence, 500 g ai/ha, visual injury approx. 10 d
[23] = 125 g ai/ha, postemergence, visual rating after approx. 10 d, 0 to 100 scale (0 no effect, 100 complete control)
[24] = Postemergence, 500 g ai/ha, 0 to 100 scale where 0 is no effect and 100 is complete control
[25] = 125 g ai/ha, postemergence, visual injury rating on 0 to 100 scale (0 no effect, 100 complete control), approx. 10 d
[26] = 125 g ai/ha, preemergence, visual rating after approx. 10 d, 0 to 100 scale where 0 is no effect and 100 is complete control
[27] = 500 g ai/ha, preemergence, 0 to 100 scale, 0 = no effect, 100 = complete control
[28] = 125 g ai/ha, postemergence, visual injury after approximately 10 d, 0 to 100 scale (0 no effect, 100 complete control)
[29] = 500 g ai/ha, postemergence, visual injury, 0 to 100 scale (0 no effect, 100 complete control), approx. 10 d

In the case of `O=C1NCC(c2ccc(Oc3ccccc3)cc2)C1C(=O)Nc1ccc(F)cc1F` (racemic) [Compound 535], the “Plant response rating, Kochia” value [1, 21] was 0, the “Kochia plant response rating (0 to 100 scale, 0 is no effect, 100 is complete control)” value [1, 22] was 0 and the “Plant response rating, Barnyardgrass” value [2, 21] was 0. For the same compound, the “Barnyardgrass plant response rating (0 to 100 scale, 0 is no effect, 100 is complete control)” value [2, 22] was 0, the “Plant response rating, Foxtail, Giant” value [3, 21] was 0 and the “Foxtail, Giant plant response rating (0 to 100 scale, 0 is no effect, 100 is complete control)” value [3, 22] was 0. For the same compound, the “Plant response rating, Pigweed” value [4, 21] was 0, the “Pigweed plant response rating (0 to 100 scale, 0 is no effect, 100 is complete control)” value [4, 22] was 0 and the “Plant response rating, Ragweed” value [5, 21] was 0. For the same compound, the “Ragweed plant response rating (0 to 100 scale, 0 is no effect, 100 is complete control)” value [5, 22] was 0, the “Plant response rating, Ryegrass, Italian” value [6, 21] was 0 and the “Ryegrass, Italian plant response rating (0 to 100 scale, 0 is no effect, 100 is complete control)” value [6, 22] was 0. For the same compound, the “Plant response rating, Galium” value [7, 23] was 0, the “Plant response rating, Galium” value [7, 24] was 0 and the “Plant response rating, Kochia” value [8, 23] was 0. For the same compound, the “Plant response rating, Kochia” value [8, 24] was 0, the “Barnyardgrass plant response rating” value [9, 25] was 0 and the “Plant response rating, Barnyardgrass” value [9, 24] was 0. For the same compound, the “Blackgrass plant response rating” value [10, 25] was 0, the “Plant response rating, Blackgrass” value [10, 24] was 0 and the “Plant response rating, Corn” value [11, 23] was 0. The “Plant response rating, Corn” value [11, 24] was 0, the “Plant response rating, Foxtail, Giant” value [12, 23] was 0 and the “Plant response rating, Foxtail, Giant” value [12, 24] was 0. For the same compound, the “Plant response rating, Pigweed” value [13, 23] was 0, the “Plant response rating, Pigweed” value [13, 24] was 0 and the “Plant response rating, Ragweed” value [14, 23] was 0. The “Plant response rating, Ragweed” value [14, 24] was 0, the “Plant response rating, Ryegrass, Italian” value [15, 23] was 0 and the “Plant response rating, Ryegrass, Italian” value [15, 24] was 0. The “Plant response rating, Wheat” value [16, 23] was 0, the “Plant response rating, Wheat” value [16, 24] was 0 and the “Plant response rating, Barnyardgrass” value [17] was 0. The “Plant response rating, Ducksalad” value [18] was 20, the “Plant response rating, Rice” value [19] was 0 and the “Plant response rating, Sedge, Umbrella” value [20] was 50.
`O=C1NCC(c2ccc(I)cc2)C1C(=O)Nc1ccccc1Cl` (racemic) [Compound 704] was tested, and the “Plant response rating, Kochia” value [1, 26] was 0, the “Plant response rating, Kochia” value [1, 27] was 30 and the “Plant response rating, Barnyardgrass” value [2, 26] was 40. For the same compound, the “Plant response rating, Barnyardgrass” value [2, 27] was 90, the “Plant response rating, Foxtail, Giant” value [3, 26] was 90 and the “Plant response rating, Foxtail, Giant” value [3, 27] was 90. For the same compound, the “Plant response rating, Pigweed” value [4, 26] was 0, the “Plant response rating, Pigweed” value [4, 27] was 30 and the “Plant response rating, Ragweed” value [5, 26] was 0. For the same compound, the “Plant response rating, Ragweed” value [5, 27] was 20, the “Plant response rating, Ryegrass, Italian” value [6, 26] was 0 and the “Plant response rating, Ryegrass, Italian” value [6, 27] was 20. The “Plant response rating, Galium” value [7, 28] was 20, the “Plant response rating, Galium” value [7, 29] was 40 and the “Plant response rating, Kochia” value [8, 28] was 0. For the same compound, the “Plant response rating, Kochia” value [8, 29] was 20, the “Plant response rating, Barnyardgrass” value [9, 28] was 70 and the “Plant response rating, Barnyardgrass” value [9, 29] was 90. The “Plant response rating, Blackgrass” value [10, 28] was 0, the “Plant response rating, Blackgrass” value [10, 29] was 30 and the “Plant response rating, Corn” value [11, 28] was 0. For the same compound, the “Plant response rating, Corn” value [11, 29] was 0, the “Plant response rating, Foxtail, Giant” value [12, 28] was 70 and the “Plant response rating, Foxtail, Giant” value [12, 29] was 90. For the same compound, the “Plant response rating, Pigweed” value [13, 28] was 0, the “Plant response rating, Pigweed” value [13, 29] was 20 and the “Plant response rating, Ragweed” value [14, 28] was 0. The “Plant response rating, Ragweed” value [14, 29] was 20, the “Plant response rating, Ryegrass, Italian” value [15, 28] was 0 and the “Plant response rating, Ryegrass, Italian” value [15, 29] was 20. The “Plant response rating, Wheat” value [16, 28] was 0, the “Plant response rating, Wheat” value [16, 29] was 0 and the “Plant response rating, Barnyardgrass” value [17] was 30. For the same compound, the “Plant response rating, Ducksalad” value [18] was 85, the “Plant response rating, Rice” value [19] was 0 and the “Plant response rating, Sedge, Umbrella” value [20] was 0.
